Reference: PubChem BioAssay AID624166 (Johns Hopkins Ion Channel Center, 2012)
Activity calls are given as the source filed them.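 Rule for the calls: active = raises the calcium signal in non-induced parental cells at some tested dose and a dose-response curve can be fitted; inactive = no activation at any dose, or no dose-response curve.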

System: not listed separately
Assay: carbachol calcium response in non-induced cells, SAR follow-up, counter-screen for RGS4 potentiator project, cell-based, HEK293 M3R, non-induced RGS4, SAR compounds (AID 624166)
Details: HEK293 M3R non-induced RGS4, carbachol calcium Fluo4; at 33.3 µM (top of the series)

With O=C(CNC1CCCCCC1)Nc1ccc(S(=O)(=O)NC2CC2)cc1 as the molecule, how does the calcium response, lower = inhibition read?
The calcium response, lower = inhibition was 19.6 (inactive).

Which calcium response, lower = inhibition does the source give for Cc1ccc(NC(=O)c2cc(-c3cccs3)nc3ccccc23)nc1 here?
Its calcium response, lower = inhibition is 52.7 (inactive).

For O=C(CNc1ccccc1)c1ccc([N+](=O)[O-])cc1, which calcium response, lower = inhibition is on record?
The calcium response, lower = inhibition was 24.6 (inactive).

With O=C(Nc1ccccc1N1CCN(C(=O)c2ccccc2)CC1)c1ccc(Cl)o1 as the molecule, how does the calcium response, lower = inhibition read?
The calcium response, lower = inhibition was 17.2 (inactive).

System: HEK293 M3R non-induced RGS4, carbachol calcium Fluo4
Assay: as above
Details: not given

With Cc1ccc(S(=O)(=O)c2ccc(Oc3cccc(C)c3)cc2)cc1 as the molecule, how does the EC50 read?
The EC50 was 2.7 µM.

For CCN1CCCC1CNCc1ccccc1OCc1ccc(F)cc1 (stereo not drawn), which EC50 is on record?
Its EC50 is 10.8 µM.

For S=c1[nH]nc(-c2ccc(Cl)cc2)n1CC1CCCO1 (stereo not drawn), which EC50 is on record?
The EC50 was 7.62 µM.

Which EC50 does the source give for COC(=O)C1CCCN(C(=O)c2cc(-c3ccc(C)cc3)nc3ccccc23)C1 (stereo not drawn) here?
Its EC50 is 16.1 µM.

For CC(C)Cn1c(-c2ccc(F)cc2)n[nH]c1=S, which EC50 is on record?
Its EC50 is 4.11 µM.

Which EC50 does the source give for CCCCn1c(-c2csc(CCC)c2)n[nH]c1=S here?
Its EC50 is 3.34 µM.

Which EC50 does the source give for CN(Cc1ccc(F)cc1)C(=O)C(c1ccccc1)c1ccccc1 here?
The EC50 was 3.18 µM.

Which EC50 does the source give for COC(=O)c1cccc(Nc2nc(-c3cccnc3)nc3ccccc23)c1 here?
The EC50 was 5.82 µM.

Which EC50 does the source give for CCn1cc(CN2CCC(n3nccc3NC(=O)c3ccc(OC)cc3)CC2)cn1 here?
The EC50 was 9.27 µM.
